Where two headings read alike, the source gives them in different places.

Experiment [1] has as its target T1, neuromedin U receptor 2 (NMUR2) (Homo sapiens, UniProt Q9GZQ4).
T1 construct: human NMUR2 stably expressed in HEK293 cells
Description: GloSensor cAMP inhibition (Gi mode) in hNMUR2 HEK293 cells; no effect in cells lacking NMUR2; FLIPR calcium EC50 […]. The format is cell-based. The settings on record: read-out: Gi/o EC50.

Experiment [2] concerns the target T1, neuromedin U receptor 2 (NMUR2). Described as above. The format is cell-based. The settings on record: read-out: Gi/o EC50. This is another data set of the same source.

T1 sequence (Q9GZQ4 whole entry): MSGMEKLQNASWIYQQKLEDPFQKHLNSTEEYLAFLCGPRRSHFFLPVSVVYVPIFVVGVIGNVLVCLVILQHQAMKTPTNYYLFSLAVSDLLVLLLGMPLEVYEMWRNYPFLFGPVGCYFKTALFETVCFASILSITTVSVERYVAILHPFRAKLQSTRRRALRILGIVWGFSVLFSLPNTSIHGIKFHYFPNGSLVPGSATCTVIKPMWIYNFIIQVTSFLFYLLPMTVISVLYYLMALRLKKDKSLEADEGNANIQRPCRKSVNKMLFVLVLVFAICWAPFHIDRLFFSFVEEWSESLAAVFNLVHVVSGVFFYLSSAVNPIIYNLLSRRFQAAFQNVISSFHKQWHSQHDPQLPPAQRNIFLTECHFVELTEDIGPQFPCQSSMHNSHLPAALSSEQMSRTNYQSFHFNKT

For `N=C(N)NCCCOC(c1ccccc1)(c1ccccc1)c1ccccc1` [NY0128], the EC50 in experiment [1] worked out at 0.71 nM.
Turning to `N=C(N)NCCOC(c1ccccc1)(c1ccccc1)c1ccccc1` [NY0116], the EC50 in experiment [2] came out at 1.69 nM.
